Assay [1] concerns the target T1, Progesterone receptor (Homo sapiens) (UniProt P06401).
T1 sequence (whole entry): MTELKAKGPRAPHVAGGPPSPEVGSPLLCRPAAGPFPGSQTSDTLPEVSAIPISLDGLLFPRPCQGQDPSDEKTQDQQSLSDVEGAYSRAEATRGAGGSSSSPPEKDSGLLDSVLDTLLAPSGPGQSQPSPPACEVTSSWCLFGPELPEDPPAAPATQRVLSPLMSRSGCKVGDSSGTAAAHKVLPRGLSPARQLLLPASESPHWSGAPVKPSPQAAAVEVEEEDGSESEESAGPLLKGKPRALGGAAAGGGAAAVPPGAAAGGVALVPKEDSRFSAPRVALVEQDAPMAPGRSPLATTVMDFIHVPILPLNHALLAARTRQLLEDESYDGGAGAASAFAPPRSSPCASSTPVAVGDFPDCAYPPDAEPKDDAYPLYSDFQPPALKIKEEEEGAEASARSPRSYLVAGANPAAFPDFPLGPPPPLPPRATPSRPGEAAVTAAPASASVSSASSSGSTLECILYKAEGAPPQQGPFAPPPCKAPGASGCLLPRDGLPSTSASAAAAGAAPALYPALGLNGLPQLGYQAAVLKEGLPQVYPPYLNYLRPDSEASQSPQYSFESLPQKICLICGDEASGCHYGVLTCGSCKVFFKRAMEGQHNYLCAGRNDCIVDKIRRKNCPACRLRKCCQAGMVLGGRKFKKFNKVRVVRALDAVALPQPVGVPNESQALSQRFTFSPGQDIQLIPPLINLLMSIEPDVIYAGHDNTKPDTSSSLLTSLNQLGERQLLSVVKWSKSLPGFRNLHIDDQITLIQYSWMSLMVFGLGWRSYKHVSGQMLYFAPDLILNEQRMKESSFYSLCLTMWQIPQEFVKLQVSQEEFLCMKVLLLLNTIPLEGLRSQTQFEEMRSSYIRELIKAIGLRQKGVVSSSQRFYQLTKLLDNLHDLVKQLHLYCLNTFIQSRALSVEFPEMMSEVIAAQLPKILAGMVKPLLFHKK
The assay can be described thus: Inhibition of [3H]R5020 binding to human recombinant progesterone receptor relative to R5020.

The target of assay [2] is T2, Progesterone receptor (Rattus norvegicus) (UniProt Q63449).
T2 sequence (whole entry): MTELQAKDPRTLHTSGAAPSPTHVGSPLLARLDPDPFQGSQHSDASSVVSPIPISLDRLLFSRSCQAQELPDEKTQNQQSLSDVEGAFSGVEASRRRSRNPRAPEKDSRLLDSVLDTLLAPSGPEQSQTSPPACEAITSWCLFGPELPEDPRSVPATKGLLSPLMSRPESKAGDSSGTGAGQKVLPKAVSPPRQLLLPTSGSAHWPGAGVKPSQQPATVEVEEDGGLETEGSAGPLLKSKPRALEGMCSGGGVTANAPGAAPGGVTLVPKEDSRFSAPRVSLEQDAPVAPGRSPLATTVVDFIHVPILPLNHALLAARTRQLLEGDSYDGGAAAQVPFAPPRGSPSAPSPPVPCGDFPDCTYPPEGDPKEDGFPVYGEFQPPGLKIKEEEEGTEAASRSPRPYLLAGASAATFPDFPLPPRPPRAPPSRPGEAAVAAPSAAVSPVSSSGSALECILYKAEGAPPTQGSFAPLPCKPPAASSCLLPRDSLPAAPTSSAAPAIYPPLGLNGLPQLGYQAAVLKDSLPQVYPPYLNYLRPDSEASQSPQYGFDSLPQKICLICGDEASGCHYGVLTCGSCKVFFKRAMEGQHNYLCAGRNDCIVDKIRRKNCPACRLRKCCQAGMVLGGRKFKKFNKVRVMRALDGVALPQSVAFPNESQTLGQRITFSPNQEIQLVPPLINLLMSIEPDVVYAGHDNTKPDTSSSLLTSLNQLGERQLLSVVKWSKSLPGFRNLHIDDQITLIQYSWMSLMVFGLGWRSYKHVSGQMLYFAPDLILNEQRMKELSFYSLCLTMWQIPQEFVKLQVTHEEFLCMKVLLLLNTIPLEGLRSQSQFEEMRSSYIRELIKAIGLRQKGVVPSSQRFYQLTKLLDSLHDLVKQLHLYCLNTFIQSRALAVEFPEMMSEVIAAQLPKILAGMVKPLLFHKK
The assay can be described thus: Inhibition of [3H]R5020 binding to rat uterine progesterone receptor relative to R5020.

As to `C[C@]12CC[C@H]3[C@@H](CCC4=CC(=O)CC[C@@H]43)[C@@H]1C[C@H]1O[C@@H](c3ccc(I)o3)O[C@]12C(=O)CF`, the relative binding affinity (RBA) in assay [1] was 40.

Take `C[C@]12CC[C@H]3[C@@H](CCC4=CC(=O)CC[C@@H]43)[C@@H]1C[C@H]1O[C@H](c3ccco3)O[C@]12C(=O)CF`: the results for the relative binding affinity (RBA) in assay [1] and in assay [2] were 5 and 11, respectively.

Consider `C[C@]12CC[C@H]3[C@@H](CCC4=CC(=O)CC[C@@H]43)[C@@H]1C[C@H]1O[C@H](c3ccc(Br)o3)O[C@]12C(=O)CO`, for which, in assay [1], the relative binding affinity (RBA) stood at 2.3.

With `CC(=O)CC(=O)[C@@]12O[C@H](c3ccc(Br)o3)O[C@@H]1C[C@H]1[C@@H]3CCC4=CC(=O)CC[C@@H]4[C@H]3CC[C@@]12C`, the relative binding affinity (RBA) in assay [1] amounted to 7.1.

With `C[C@]12CC[C@H]3[C@@H](CCC4=CC(=O)CC[C@@H]43)[C@@H]1C[C@H]1O[C@@H](c3ccc(I)cc3)O[C@]12C(=O)CF`, the relative binding affinity (RBA) in assay [1] was 6.4.

In the case of `C[C@]12CC[C@H]3[C@@H](CCC4=CC(=O)CC[C@@H]43)[C@@H]1C[C@H]1O[C@H](c3ccc(Br)cc3)O[C@]12C(=O)CF`, the relative binding affinity (RBA) in assay [1] stood at 4.7.

Regarding `C[C@]12CC[C@H]3[C@@H](CCC4=CC(=O)CC[C@@H]43)[C@@H]1C[C@H]1O[C@@H](c3ccc(I)cc3)O[C@]12C(=O)CO`, the relative binding affinity (RBA) in assay [1] is 0.81.

On to `CC(=O)CC(=O)[C@@]12O[C@@H](c3ccc(Br)o3)O[C@@H]1C[C@H]1[C@@H]3CCC4=CC(=O)CC[C@@H]4[C@H]3CC[C@@]12C`, for which, in assay [1], the relative binding affinity (RBA) turned out to be 1.4.

On to `C[C@]12CC[C@H]3[C@@H](CCC4=CC(=O)CC[C@@H]43)[C@@H]1C[C@H]1O[C@@H](c3ccco3)O[C@]12C(=O)CF`, for which the values for the relative binding affinity (RBA) in assay [1] and in assay [2] were 180 and 190, respectively.

Regarding `C[C@]12CC[C@H]3[C@@H](CCC4=CC(=O)CC[C@@H]43)[C@@H]1C[C@H]1O[C@@H](c3ccc(Br)cc3)O[C@]12C(=O)CO`, the relative binding affinity (RBA) in assay [1] was found to be 23.

Regarding `C[C@]12CC[C@H]3[C@@H](CCC4=CC(=O)CC[C@@H]43)[C@@H]1C[C@H]1O[C@@H](c3ccc(Br)o3)O[C@]12C(=O)CO`, in assay [1], the relative binding affinity (RBA) is 65.

Regarding `C[C@]12CC[C@H]3[C@@H](CCC4=CC(=O)CC[C@@H]43)[C@@H]1C[C@H]1O[C@H](c3ccc(I)o3)O[C@]12C(=O)CO`, the relative binding affinity (RBA) in assay [1] was determined as 2.6.

Turning to `C[C@]12CC[C@H]3[C@@H](CCC4=CC(=O)CC[C@@H]43)[C@@H]1C[C@H]1O[C@H](c3ccc(I)s3)O[C@]12C(=O)CO`, the relative binding affinity (RBA) in assay [1] was 0.95.

For `C[C@]12CC[C@H]3[C@@H](CCC4=CC(=O)CC[C@@H]43)[C@@H]1C[C@H]1O[C@@H](c3ccc(I)o3)O[C@]12C(=O)CO`, the relative binding affinity (RBA) in assay [1] worked out at 23.

Turning to `C[C@]12CC[C@H]3[C@@H](CCC4=CC(=O)CC[C@@H]43)[C@@H]1C[C@H]1O[C@@H](c3ccc(Br)s3)O[C@]12C(=O)CO`, the relative binding affinity (RBA) in assay [1] was determined as 5.2.

On to `C[C@]12CC[C@H]3[C@@H](CCC4=CC(=O)CC[C@@H]43)[C@@H]1C[C@H]1O[C@H](c3ccc(Br)o3)O[C@]12C(=O)CF`, for which the relative binding affinity (RBA) in assay [1] was determined as 4.4.

For `C[C@]12CC[C@H]3[C@@H](CCC4=CC(=O)CC[C@@H]43)[C@@H]1C[C@H]1O[C@H](c3ccco3)O[C@]12C(=O)CO`, the values for the relative binding affinity (RBA) in assay [1] and in assay [2] were 2.4 and 2.5, respectively.

Regarding `C[C@]12CC[C@H]3[C@@H](CCC4=CC(=O)CC[C@@H]43)[C@@H]1C[C@H]1O[C@H](c3ccc(I)cc3)O[C@]12C(=O)CF`, in assay [1], the relative binding affinity (RBA) came to 34.

As to `C[C@]12CC[C@H]3[C@@H](CCC4=CC(=O)CC[C@@H]43)[C@@H]1C[C@H]1O[C@H](c3ccc(Br)s3)O[C@]12C(=O)CO`, in assay [1], the relative binding affinity (RBA) stood at 1.7.

`C[C@]12CC[C@H]3[C@@H](CCC4=CC(=O)CC[C@@H]43)[C@@H]1C[C@H]1O[C@@H](c3ccc(I)s3)O[C@]12C(=O)CO`: the relative binding affinity (RBA) in assay [1] amounted to 3.2.

For `C[C@]12CC[C@H]3[C@@H](CCC4=CC(=O)CC[C@@H]43)[C@@H]1C[C@H]1O[C@H](c3ccc(I)cc3)O[C@]12C(=O)CO`, the relative binding affinity (RBA) in assay [1] was 1.8.

Turning to `C[C@]12CC[C@H]3[C@@H](CCC4=CC(=O)CC[C@@H]43)[C@@H]1C[C@H]1O[C@@H](c3ccco3)O[C@]12C(=O)CO`, the relative binding affinity (RBA) in assay [1] came out at 53; in assay [2], 55.

As for `C[C@]12CC[C@H]3[C@@H](CCC4=CC(=O)CC[C@@H]43)[C@@H]1C[C@H]1O[C@H](c3ccc(Br)cc3)O[C@]12C(=O)CO`, the relative binding affinity (RBA) in assay [1] amounted to 0.41.

On to `C[C@]12CC[C@H]3[C@@H](CCC4=CC(=O)CC[C@@H]43)[C@@H]1C[C@H]1O[C@@H](c3ccc(Br)o3)O[C@]12C(=O)CF`, for which the relative binding affinity (RBA) in assay [1] is 24.

For the molecule `C[C@]12CC[C@H]3[C@@H](CCC4=CC(=O)CC[C@@H]43)[C@@H]1C[C@H]1O[C@H](c3ccc(I)o3)O[C@]12C(=O)CF`, the relative binding affinity (RBA) in assay [1] amounted to 9.

Regarding `C[C@]12CC[C@H]3[C@@H](CCC4=CC(=O)CC[C@@H]43)[C@@H]1C[C@H]1O[C@@H](c3ccc(Br)cc3)O[C@]12C(=O)CF`, in assay [1], the relative binding affinity (RBA) stood at 3.9.

The values above are taken from ChEMBL document CHEMBL1138949, “Bromine- and iodine-substituted 16alpha,17alpha-dioxolane progestins for breast tumor imaging and radiotherapy: synthesis and receptor binding affinity” (J Med Chem, 2006).
